Values quoted from earlier work, collected in patent US6444676B1, “Use of PARP inhibitors in the treatment of glaucoma” (priority 1999, dated 2002).

What was measured:
neuronal apoptosis = conditions: induced by various injuries including amino acid excitotoxicity
rat retina = conditions: at 3 mM or higher concentrations, administered via intracameral infusion

| SMILES | prevention of neuronal apoptosis (neuronal apoptosis) | ischemia/reperfusion damage and DNA fragmentation in rat retina (rat retina) |
| --- | --- | --- |
| Nc1cccc2c(=O)[nH][nH]c(=O)c12 [3-aminophtalhydrazide] | prevent neuronal apoptosis | – |
| NC(=O)c1cccc(N)c1 [3-aminobenzamide] | prevent neuronal apoptosis | reduce ischemia/reperfusion damage and DNA fragmentation |
| Oc1cccc2c(O)nccc12 [1,5-dihydroxyisoquinoline] | prevent neuronal apoptosis | – |
| NC(=O)c1ccccc1 [benzamide] | prevent neuronal apoptosis | – |
